# Test results as given in PMC6478789, “A chemical toolbox for the study of bromodomains and epigenetic signaling” (Nature Communications, 2019).
# Tests used:
# [1] = target: BRPF1 (Homo sapiens, UniProt P55201); assay: Temperature shift assay (non-BRD reader domains); format: binding; details: 10µM compound
# [2] = target: MYST3 (Homo sapiens, UniProt Q92794); assay: Histone acetyltransferase (HAT) activity assay; format: biochemical; details: for activity at 1 µM / activity at 10 µM: read-out: HATs Activity (%);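 on all read-outs here: selectivity screen of bromodomain probe compounds across a panel of histone acetyltransferases, read out as enzyme activity in %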
# [3] = target: T1, HAT1 (Homo sapiens, UniProt O14929); assay: Histone acetyltransferase (HAT) activity assay; format: biochemical; details: for activity at 1 µM / activity at 10 µM: read-out: HATs Activity (%);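 on all read-outs here: HAT selectivity screen of BRD probe compounds, enzyme activity in % measured with compound at 1 µM and 10 µM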
# T1 sequence (O14929 1-419): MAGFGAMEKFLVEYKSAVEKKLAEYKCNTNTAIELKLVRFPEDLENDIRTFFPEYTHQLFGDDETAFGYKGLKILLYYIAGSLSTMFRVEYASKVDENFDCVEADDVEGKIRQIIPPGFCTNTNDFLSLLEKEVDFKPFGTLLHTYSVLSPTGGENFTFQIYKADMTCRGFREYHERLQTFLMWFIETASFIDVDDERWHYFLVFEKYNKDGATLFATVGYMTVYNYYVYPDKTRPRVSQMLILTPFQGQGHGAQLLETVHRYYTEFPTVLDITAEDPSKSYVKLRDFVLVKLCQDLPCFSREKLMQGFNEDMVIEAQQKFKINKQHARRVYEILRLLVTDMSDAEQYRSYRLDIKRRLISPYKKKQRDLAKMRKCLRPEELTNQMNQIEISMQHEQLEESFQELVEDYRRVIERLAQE
# [4] = target: EP300 (Homo sapiens, UniProt Q09472); assay: Histone acetyltransferase (HAT) activity assay; format: biochemical; details: for activity at 1 µM / activity at 10 µM: read-out: HATs Activity (%);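 on all read-outs here: selectivity screen of bromodomain probe compounds against histone acetyltransferases, with enzyme activity given in percent for compounds tested at 1 and 10 µM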
# [5] = target: T2, MYST1 (Homo sapiens, UniProt Q9H7Z6); assay: Histone acetyltransferase (HAT) activity assay; format: biochemical; details: for activity at 1 µM / activity at 10 µM: read-out: HATs Activity (%);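 on all read-outs here: selectivity screen across a panel of histone acetyltransferases, with compounds tested at 1 and 10 µM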
# T2 sequence (Q9H7Z6 1-458): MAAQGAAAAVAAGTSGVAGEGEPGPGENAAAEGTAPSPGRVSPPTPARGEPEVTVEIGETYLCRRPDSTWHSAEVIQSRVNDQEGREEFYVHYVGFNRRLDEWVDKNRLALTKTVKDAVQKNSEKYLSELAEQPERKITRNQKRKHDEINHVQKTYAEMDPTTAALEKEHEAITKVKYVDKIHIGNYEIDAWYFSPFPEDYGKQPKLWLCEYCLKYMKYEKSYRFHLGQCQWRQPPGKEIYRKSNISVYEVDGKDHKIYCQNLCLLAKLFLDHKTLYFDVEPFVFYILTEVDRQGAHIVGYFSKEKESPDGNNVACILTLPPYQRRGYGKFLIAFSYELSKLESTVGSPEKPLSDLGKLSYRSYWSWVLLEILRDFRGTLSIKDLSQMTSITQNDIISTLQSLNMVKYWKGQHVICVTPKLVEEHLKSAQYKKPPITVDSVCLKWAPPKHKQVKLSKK
# [6] = target: GCN5L2 (Homo sapiens, UniProt Q92830); assay: Histone acetyltransferase (HAT) activity assay; format: biochemical; details: for activity at 1 µM / activity at 10 µM: read-out: HATs Activity (%);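 on all read-outs here: selectivity screen of BRD probe compounds across a panel of histone acetyltransferases, HAT activity in % with compound at 1 or 10 µM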
# [7] = target: PBRM1(5) (Homo sapiens, UniProt Q86U86); assay: BROMOscan ligand-binding assay; details: BROMOscan, PBRM1(5)
# Source text: (§1) BROMOscan is a binding assay based on the well-known KINOMEscan technology. This assay measures the binding of a DNA-tagged bromodomain to an immobilized BRD ligand. If an inhibitor is present, it will compete with the bromodomain binding to the immobilized ligand, resulting in reduction of a quantitative PCR (qPCR) signal in a dose-dependent manner.
# [8] = target: T3, BAZ2A (Homo sapiens, UniProt Q9UIF9); assay: BROMOscan ligand-binding assay; details: BAZ2A
# T3 sequence (Q9UIF9 1793-1897 limits assumed): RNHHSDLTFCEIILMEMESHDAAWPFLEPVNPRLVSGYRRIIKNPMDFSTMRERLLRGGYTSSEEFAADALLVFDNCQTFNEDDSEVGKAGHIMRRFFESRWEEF
# Source text: as §1
# [9] = target: T4, TRIM24(PHD,BRD) (Homo sapiens, UniProt O15164); assay: BROMOscan ligand-binding assay; details: BROMOscan, TRIM24(PHD,Bromo.)
# T4 sequence (O15164 824-1006 limits assumed): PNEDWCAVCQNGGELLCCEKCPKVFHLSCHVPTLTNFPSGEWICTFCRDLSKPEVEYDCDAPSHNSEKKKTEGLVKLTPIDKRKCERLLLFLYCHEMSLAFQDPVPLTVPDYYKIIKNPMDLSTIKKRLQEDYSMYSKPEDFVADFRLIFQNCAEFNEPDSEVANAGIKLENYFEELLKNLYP
# Source text: as §1
# [10] = target: WDR9(2) (Homo sapiens, UniProt Q9NSI6); assay: BROMOscan ligand-binding assay; details: BROMOscan, WDR9(2)
# Source text: as §1
# [11] = target: BRD2(2) (Homo sapiens, UniProt P25440); assay: BROMOscan ligand-binding assay; details: BROMOscan, BRD2(2)
# Source text: as §1
# [12] = target: BRD8(2) (Homo sapiens, UniProt Q9H0E9); assay: BROMOscan ligand-binding assay; details: BROMOscan, BRD8(2)
# Source text: as §1
# [13] = target: PBRM1(2) (Homo sapiens, UniProt Q86U86); assay: BROMOscan ligand-binding assay; details: BROMOscan, PBRM1(2)
# Source text: as §1
# [14] = target: FALZ (Homo sapiens, UniProt Q12830); assay: BROMOscan ligand-binding assay; details: BROMOscan, FALZ
# Source text: as §1
# [15] = target: T5, TAF1L(2) (Homo sapiens, UniProt Q8IZX4); assay: BROMOscan ligand-binding assay; details: BROMOscan, TAF1L(2)
# T5 sequence (Q8IZX4 1517-1626 limits assumed): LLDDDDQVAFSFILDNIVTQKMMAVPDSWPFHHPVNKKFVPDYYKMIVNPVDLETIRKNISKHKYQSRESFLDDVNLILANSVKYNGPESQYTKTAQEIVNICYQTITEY
# Source text: as §1
# [16] = target: BRD2(1) (Homo sapiens, UniProt P25440); assay: BROMOscan ligand-binding assay; details: BRD2(1)
# Source text: as §1
# [17] = target: T6, BRD1 (Homo sapiens, UniProt O95696); assay: BROMOscan ligand-binding assay; details: BRD1
# T6 sequence (O95696 562-666 limits assumed): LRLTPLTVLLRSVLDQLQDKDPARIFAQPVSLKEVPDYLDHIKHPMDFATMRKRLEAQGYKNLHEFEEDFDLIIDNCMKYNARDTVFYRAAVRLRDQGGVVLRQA
# Source text: as §1
# MYST3, sequence (Q92794 whole entry, species assumed): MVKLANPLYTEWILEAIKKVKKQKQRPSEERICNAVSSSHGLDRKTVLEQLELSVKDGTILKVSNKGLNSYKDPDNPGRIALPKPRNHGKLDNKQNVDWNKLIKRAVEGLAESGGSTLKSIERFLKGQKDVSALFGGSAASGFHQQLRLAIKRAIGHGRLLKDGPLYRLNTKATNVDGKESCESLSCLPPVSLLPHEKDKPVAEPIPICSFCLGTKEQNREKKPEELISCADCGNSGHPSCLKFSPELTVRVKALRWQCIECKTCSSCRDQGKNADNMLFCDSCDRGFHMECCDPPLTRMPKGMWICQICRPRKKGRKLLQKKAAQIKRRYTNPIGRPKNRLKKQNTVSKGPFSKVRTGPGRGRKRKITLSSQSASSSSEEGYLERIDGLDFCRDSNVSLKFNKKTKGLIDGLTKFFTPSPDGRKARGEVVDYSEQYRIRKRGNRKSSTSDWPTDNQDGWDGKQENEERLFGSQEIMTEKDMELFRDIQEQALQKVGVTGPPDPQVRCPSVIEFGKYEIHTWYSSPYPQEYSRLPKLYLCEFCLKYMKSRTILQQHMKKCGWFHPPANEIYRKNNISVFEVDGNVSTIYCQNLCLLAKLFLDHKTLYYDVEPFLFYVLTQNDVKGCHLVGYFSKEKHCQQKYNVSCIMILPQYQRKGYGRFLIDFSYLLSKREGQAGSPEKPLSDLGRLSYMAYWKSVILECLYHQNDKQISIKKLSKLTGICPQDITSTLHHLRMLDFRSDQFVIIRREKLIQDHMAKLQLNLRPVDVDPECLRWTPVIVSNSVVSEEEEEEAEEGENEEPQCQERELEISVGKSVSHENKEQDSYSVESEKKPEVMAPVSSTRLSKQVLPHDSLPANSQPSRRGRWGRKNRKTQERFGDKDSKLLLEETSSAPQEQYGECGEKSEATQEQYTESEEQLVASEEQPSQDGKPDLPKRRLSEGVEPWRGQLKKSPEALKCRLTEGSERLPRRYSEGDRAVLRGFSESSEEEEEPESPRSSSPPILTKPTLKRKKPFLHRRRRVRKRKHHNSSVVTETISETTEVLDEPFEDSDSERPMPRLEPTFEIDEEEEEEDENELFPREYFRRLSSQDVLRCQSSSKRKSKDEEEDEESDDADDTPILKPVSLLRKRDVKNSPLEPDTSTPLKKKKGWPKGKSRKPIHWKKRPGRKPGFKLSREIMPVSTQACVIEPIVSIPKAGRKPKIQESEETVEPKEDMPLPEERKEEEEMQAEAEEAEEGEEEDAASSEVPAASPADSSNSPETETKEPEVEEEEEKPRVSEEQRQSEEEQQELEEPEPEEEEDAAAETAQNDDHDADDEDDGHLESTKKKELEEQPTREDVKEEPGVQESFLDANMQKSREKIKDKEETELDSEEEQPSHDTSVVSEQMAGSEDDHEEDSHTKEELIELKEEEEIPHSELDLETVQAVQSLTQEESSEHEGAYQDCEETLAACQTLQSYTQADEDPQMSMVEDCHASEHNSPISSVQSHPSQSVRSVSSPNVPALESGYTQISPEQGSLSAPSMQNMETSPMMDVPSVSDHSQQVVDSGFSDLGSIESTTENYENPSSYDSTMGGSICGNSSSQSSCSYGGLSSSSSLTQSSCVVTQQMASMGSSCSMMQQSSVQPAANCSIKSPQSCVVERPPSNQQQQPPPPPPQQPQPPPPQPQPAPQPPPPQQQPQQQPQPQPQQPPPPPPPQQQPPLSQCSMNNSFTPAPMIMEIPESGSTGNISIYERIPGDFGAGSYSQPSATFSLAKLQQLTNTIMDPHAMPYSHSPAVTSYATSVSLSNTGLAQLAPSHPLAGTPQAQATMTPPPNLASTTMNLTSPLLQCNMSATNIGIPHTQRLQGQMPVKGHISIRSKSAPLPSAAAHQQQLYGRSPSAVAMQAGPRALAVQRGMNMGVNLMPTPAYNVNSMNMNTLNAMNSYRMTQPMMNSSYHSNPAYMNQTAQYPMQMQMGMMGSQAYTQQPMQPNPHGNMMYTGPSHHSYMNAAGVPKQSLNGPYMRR
# EP300, sequence (Q09472 whole entry, species assumed): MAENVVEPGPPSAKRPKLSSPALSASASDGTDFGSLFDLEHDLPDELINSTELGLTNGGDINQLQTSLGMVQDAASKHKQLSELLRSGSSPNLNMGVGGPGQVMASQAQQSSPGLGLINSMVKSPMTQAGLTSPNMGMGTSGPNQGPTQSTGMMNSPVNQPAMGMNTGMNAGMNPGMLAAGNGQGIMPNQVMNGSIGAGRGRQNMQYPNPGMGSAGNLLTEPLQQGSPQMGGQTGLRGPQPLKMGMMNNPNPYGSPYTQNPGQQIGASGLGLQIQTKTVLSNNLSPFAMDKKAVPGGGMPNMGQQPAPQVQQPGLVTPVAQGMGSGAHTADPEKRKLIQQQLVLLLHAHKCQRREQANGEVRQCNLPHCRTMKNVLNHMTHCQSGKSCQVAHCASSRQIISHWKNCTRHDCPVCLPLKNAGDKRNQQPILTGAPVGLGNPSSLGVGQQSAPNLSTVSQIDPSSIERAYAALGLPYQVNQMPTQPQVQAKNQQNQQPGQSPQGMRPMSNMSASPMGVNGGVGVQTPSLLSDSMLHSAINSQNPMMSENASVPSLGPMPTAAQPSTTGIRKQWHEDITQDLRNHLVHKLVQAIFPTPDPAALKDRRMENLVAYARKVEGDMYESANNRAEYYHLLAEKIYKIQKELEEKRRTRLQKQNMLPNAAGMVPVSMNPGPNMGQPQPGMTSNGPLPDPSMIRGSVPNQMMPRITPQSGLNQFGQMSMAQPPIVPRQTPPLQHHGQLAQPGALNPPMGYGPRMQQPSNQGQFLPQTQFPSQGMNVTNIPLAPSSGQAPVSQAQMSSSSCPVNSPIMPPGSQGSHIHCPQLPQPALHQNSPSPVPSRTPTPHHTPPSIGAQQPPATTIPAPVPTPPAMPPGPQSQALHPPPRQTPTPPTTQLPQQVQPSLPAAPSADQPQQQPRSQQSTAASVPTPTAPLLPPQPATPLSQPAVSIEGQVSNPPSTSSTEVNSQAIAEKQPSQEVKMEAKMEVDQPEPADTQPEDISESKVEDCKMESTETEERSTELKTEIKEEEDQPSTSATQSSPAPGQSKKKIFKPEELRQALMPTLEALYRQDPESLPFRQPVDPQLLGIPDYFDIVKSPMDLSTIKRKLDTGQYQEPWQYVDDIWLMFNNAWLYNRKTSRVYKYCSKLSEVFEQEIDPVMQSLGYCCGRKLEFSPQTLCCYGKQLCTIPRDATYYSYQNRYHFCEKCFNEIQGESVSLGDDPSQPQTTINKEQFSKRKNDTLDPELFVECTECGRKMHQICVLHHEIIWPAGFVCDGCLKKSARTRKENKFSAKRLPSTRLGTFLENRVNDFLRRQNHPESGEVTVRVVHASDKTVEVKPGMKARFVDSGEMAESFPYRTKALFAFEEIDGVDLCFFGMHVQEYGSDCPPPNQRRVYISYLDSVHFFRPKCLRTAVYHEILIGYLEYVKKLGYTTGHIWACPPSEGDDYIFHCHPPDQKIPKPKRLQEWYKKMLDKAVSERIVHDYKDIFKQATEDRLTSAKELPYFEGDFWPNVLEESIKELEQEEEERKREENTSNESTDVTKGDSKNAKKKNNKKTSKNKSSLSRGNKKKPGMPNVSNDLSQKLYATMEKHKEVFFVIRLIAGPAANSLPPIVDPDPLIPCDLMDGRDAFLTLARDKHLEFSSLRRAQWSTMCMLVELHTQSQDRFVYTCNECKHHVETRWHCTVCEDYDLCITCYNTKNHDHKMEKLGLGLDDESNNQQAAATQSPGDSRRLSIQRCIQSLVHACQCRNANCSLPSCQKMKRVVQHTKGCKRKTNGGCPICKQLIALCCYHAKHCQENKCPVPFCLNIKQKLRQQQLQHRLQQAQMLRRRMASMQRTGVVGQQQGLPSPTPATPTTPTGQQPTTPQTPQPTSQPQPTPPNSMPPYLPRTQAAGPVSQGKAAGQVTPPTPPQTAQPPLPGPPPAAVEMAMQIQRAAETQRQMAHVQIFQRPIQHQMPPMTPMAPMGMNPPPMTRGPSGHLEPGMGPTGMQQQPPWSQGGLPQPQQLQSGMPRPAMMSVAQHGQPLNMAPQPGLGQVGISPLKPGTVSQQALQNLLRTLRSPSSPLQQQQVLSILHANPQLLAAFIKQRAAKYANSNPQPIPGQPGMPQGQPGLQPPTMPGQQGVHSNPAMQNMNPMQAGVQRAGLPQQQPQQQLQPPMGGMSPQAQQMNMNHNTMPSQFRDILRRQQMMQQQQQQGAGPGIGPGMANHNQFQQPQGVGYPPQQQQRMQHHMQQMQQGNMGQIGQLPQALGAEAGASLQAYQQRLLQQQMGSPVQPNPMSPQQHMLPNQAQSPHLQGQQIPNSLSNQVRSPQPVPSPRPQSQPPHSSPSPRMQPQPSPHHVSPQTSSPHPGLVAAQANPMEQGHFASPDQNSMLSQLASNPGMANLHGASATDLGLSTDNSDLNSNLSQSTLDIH
# BRPF1, sequence (P55201 1085-1168 limits assumed, species assumed): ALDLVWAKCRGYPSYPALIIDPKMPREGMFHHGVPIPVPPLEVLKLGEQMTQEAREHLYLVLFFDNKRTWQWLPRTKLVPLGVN
# WDR9(2), sequence (Q9NSI6 1313-1418 limits assumed): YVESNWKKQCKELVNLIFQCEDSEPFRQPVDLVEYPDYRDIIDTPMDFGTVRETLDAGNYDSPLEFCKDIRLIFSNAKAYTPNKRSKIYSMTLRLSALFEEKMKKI
# BRD2(1), sequence (P25440 74-180 limits assumed): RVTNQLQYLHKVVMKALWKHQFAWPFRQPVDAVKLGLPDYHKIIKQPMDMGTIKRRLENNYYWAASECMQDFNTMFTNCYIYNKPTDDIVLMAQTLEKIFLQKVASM
# BRD2(2), sequence (P25440 344-453 limits assumed): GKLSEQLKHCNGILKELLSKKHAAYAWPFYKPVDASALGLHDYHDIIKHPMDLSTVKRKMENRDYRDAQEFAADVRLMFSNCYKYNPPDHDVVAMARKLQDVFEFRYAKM
# BRD8(2), sequence (Q9H0E9 1099-1207 limits assumed): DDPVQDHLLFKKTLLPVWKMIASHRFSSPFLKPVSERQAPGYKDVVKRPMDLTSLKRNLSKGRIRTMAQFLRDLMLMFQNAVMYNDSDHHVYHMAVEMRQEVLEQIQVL
# PBRM1(2), sequence (Q86U86 177-287 limits assumed): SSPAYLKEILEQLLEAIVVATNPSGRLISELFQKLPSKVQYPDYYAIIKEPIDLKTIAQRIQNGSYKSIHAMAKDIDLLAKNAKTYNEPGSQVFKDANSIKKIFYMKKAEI
Structure (SMILES),"Tm (C) 10µM, temperature shift [1] [Kelvin]",activity at 1 µM ([2]; 1µM) [%],activity at 10 µM ([2]; 10µM) [%],activity at 1 µM ([3]; 1µM) [%],activity at 10 µM ([3]; 10µM) [%],activity at 1 µM ([4]; 1µM) [%],activity at 10 µM ([4]; 10µM) [%],activity at 1 µM ([5]; 1µM) [%],activity at 10 µM ([5]; 10µM) [%],activity at 1 µM ([6]; 1µM) [%],activity at 10 µM ([6]; 10µM) [%],HATs Activity (%) ([2]; 1µM),HATs Activity (%) ([2]; 10µM),HATs Activity (%) ([3]; 1µM),HATs Activity (%) ([3]; 10µM),HATs Activity (%) ([4]; 1µM),HATs Activity (%) ([4]; 10µM),HATs Activity (%) ([5]; 1µM),HATs Activity (%) ([5]; 10µM),HATs Activity (%) ([6]; 1µM),also measured
Cc1nnc2c3ccccc3c(N[C@@H](C)[C@H](c3ccccc3)N(C)C)nn12 [L-Moses],-2.7,92,90,100,95,94,90,97,96,99,95,,,,,,,,,,
Cc1cc(=O)n(C)c2cc(N3C(=O)CC[C@H](NS(=O)(=O)CC(C)C)[C@H]3c3ccc(Cl)cc3)ccc12 [LP-99],,,,,,,,,,,,96,100,104,95,99,98,90,88,92,Kd [7]: > 50 µM; Kd [8]: > 50 µM; Kd [9]: > 50 µM; Kd [10]: > 50 µM; Kd [11]: 9.2 µM; Kd [12]: > 50 µM; Kd [13]: > 50 µM; Kd [14]: > 50 µM; Kd [15]: > 50 µM; Kd [16]: > 50 µM; Kd [17]: 22 µM; HATs Activity (%) ([6]; 10µM): 89%
COc1ccccc1C(=O)Nc1cc2c(cc1N1CCNC[C@H]1C)n(C)c(=O)n2C [GSK6853],,,,,,,,,,,,107,104,100,94,98,104,99,101,107,HATs Activity (%) ([6]; 10µM): 107%
Cc1c(NC(=O)c2cc(C(N)=O)nc3cc(F)ccc23)c(C(F)(F)F)nn1Cc1ccc(C#N)cc1 [BAY-876],-0.3,99,101,97,89,99,95,96,91,100,97,,,,,,,,,,
CO[C@H]1CNC[C@@H](OCC2CCC(F)(F)CC2)[C@@H]1Nc1ncc(-c2cncc(C)c2)c2cc(C)c(=O)[nH]c12 [GSK8814],-0.2,96,102,100,95,96,102,99,103,102,100,,,,,,,,,,
Cc1c(NC(=O)c2cc(C(N)=O)nc3cc(F)ccc23)c(C(F)(F)F)nn1Cc1ccc(C(C)(C)C)cc1 [BAY-588],-0.2,99,96,99,97,103,99,100,93,94,95,,,,,,,,,,
